Source: patent US6492124B1, “Trance activated signal transduction pathways in osteoclasts” (The Rockefeller University, priority 1999, dated 2002)

Columns and labels:
Assay type in all cases: cell-based, mouse
PKB = PKB activation in osteoclasts (phospho-PKB Western blot)
Method: (§1) FIG. 1. […] (A) Mature bone marrow-derived osteoclasts were stimulated for the indicated times with recombinant hCD8-TRANCE (TRANCE; 1 μg/ml). Levels of phosphorylated forms of p44/p42 ERK (p44 ERK^P and p42 ERK^P), IκBα (IκB-α^P) and PKB (PKB^P) in whole cell extracts were determined using phospho-peptide-specific antibodies as indicated in the figure. […] (B) as in (A) except the use of mature bone marrow-derived dendritic cells instead of osteoclasts.
(§2) FIG. 2. […] (A) Osteoclasts were serum starved and then pretreated for 90 min with LY294002 (10 μM), Herbimycin A (Herb. A; 10 μM), and PP1 (10 μM) inhibitors which are specific for PI3-kinase, PTKs, and Src-family kinases, respectively, were stimulated for indicated times with TRANCE (1 μg/ml). Levels of phosphorylated p44/p42 ERK, PKB, and IκB-α were determined as described in FIG. 1. Cells pretreated with vehicle (DMSO) were used as a negative control. (B) as in (A) except the use of mature bone marrow-derived dendritic cells.
(§3) Primary cells and cell lines. […] In brief, bone marrow cells from tibiae and femur of 4-6 week old mice (C57BL/6, Jackson Laboratories) were cultured overnight in media (α-MEM, 10% FCS) in the presence of CSF-1 (5 ng/ml). […] For experiments described in this study, only adherent cells were used after extensive washing. […] After allowing them adhere for 2 hours to a tissue culture dish, contaminating floater cells were washed away and mature dendritic cells were obtained by overnight culture.
(§4) Cell stimulation, cell transfection and in vitro assays. In vitro differentiated mature dendritic cells, macrophages and osteoclasts were washed to remove exogenous growth factors, cultured in media with low serum (0.5% FCS, 6 hours), then stimulated by adding various cytokines in the presence or absence of inhibitors for various times as indicated. After stimulation, the cells were washed in ice-cold PBS, and subjected to Western blot analysis or immunoprecipitation as described below.
All cells were harvested and lysed in extraction buffer (20 mM HEPES NaOH (pH 7.4), 150 mM NaCl, 1% Triton X-100, 10% glycerol, 10 mM EDTA, 1 mM Na3VO4, 1 mM phenylmethylsulfonylfluoride, 1 μg/ml leupeptin, and 0.1 U of aprotinin per ml) and cleared by centrifugation to obtain whole cell extracts. Protein assays were performed to ensure equal amounts of lysates were used in each sample.

NF-κB = NF-κB activation measured by IκB-α phosphorylation/degradation in osteoclasts and dendritic cells (Western blot); conditions: osteoclasts and dendritic cells, beginning at 10 min of TRANCE, coinciding with peak of IκB-α phosphorylation
Method: as §1, §2, §3
as §4, with “below. […]” for “below.”

c-Src = c-Src immunoprecipitate in vitro kinase assay with SAM68 after TRANCE stimulation of cells
Method: FIG. 3. c-Src is required for TRANCE-induced PKB activation and osteoclast survival. (A) c-Src was immunoprecipitated from osteoclasts, dendritic cells and macrophages stimulated with TRANCE (1 μg/ml) for the indicated times using an anti-c-Src-specific monoclonal antibody (327). PTK activity of the c-Src immunprecipitates were measured in vitro using SAM68, a PTK specific substrate. The degree of SAM68 phosphorylation was determined by Western blot analysis using an anti-phospho-tyrosine antibody (4G10) and densitometry. Note that c-Src kinase activity was not detectable in TRANCE-treated macrophages most likely due to low levels of c-Src in these cells (Lacey, et al., supra, 1998). (B) Osteoclasts derived from wild type and c-Src deficient mice were stimulated with TRANCE (5 μg/ml) for 10 min and the levels of phosphorylated PKB (PKB^P), total PKB, and total IκBα were determined as in FIG. 1. […] TRAP solution assays were performed and percent survival calculated. […] Osteoclasts were detected by TRAP solution assays. […]
FIG. 5. […] PTK activity of the c-Src immunoprecipitates was measured by in vitro kinase assays using SAM68 as a PTK substrate. The degree of SAM68 phosphorylation (SAM68^P) was determined by Western blot analysis using a phospho-tyrosine specific antibody (4G10) followed by densitometry. […] The degree of SAM68 phosphorylation (SAM68^P) was determined as in (A). […]

What does the source list for “TNF-related activation-induced cytokine [TRANCE]”?
activation of PKB in c-Src−/− osteoclasts compared with wild-type (PKB; TRANCE 5 μg/ml, 10 min): substantially reduced; time by which PKB activity subsided (PKB; osteoclasts, TRANCE stimulation): ≤ 60 min; phosphorylated form of PKB upon TRANCE stimulation (PKB; osteoclasts, after 5 minutes, TRANCE 1 μg/ml): increase; total cellular IκB-α (NF-κB): decrease; c-Src kinase activity (c-Src; TRANCE-treated macrophages): no detectable; induction of c-Src kinase activity (c-Src; osteoclasts and dendritic cells, TRANCE 1 μg/ml): approximately 2 fold
